Some test systems named below: SNB-75; HT-29; MDA-MB-435; EKVX; TK-10; HOP-92; IGROV-1; SN12C; SF-295; Hs-578T; DU-145; MCF7; KM12; BT-549; U-251; NCI-H460; NCI/ADR-RES; NCI-H522; HL-60.
Common to all, as to experiment: growth of human tumour cells (NCI), 48 h

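48-hour exposure; five concentrations; linearly interpolated endpoints. GI50 is the concentration that inhibits growth by half.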 Activity calls are given as the source filed them. Cut-off read from the data, not from the text of the source: active = GI50 up to about 1.1 µM and inactive = higher.

As to `COC(=O)CCC(NC(=O)C(C)NC(=O)COC1C(O)C(OC(=O)CCNc2c3ccccc3nc3cccc([N+](=O)[O-])c23)OC(OCc2ccccc2)C1NC(C)=O)C(N)=O` (configuration not stated), the GI50 with SNB-75 is > 10 µM (inactive); with HT-29 it was 2.62 µM (inactive); with MDA-MB-435 it was 3.39 µM (inactive); with EKVX it was > 10 µM (inactive); in the experiment on TK-10, > 10 µM (inactive); in the experiment on HOP-92 it was 4.43 µM (inactive). For the same compound, the GI50 with IGROV-1 was > 10 µM (inactive); in the experiment with SN12C it was 4.2 µM (inactive); in the experiment with SF-295 it was > 10 µM (inactive); in the experiment on Hs-578T, > 10 µM (inactive); in the experiment on DU-145 it was 2.6 µM (inactive); with MCF7, 2.28 µM (inactive). For the same compound, the GI50 with KM12 is 5.71 µM (inactive); in the experiment with BT-549, > 10 µM (inactive); in the experiment on U-251 it was 9.98 µM (inactive); in the experiment with NCI-H460, > 10 µM (inactive).

With `CC(C)(C)[Si](C)(C)OCC1OC(n2ccc(=O)[nH]c2=O)C(O[Si](C)(C)C(C)(C)C)/C1=N/O` (configuration not stated), the GI50 is 18.5 µM (inactive) in the experiment on SNB-75; 2.84 µM (inactive) in the experiment with HT-29; 3.11 µM (inactive) with MDA-MB-435; 4.13 µM (inactive) in the experiment on EKVX; 6.68 µM (inactive) in the experiment on TK-10; 2.77 µM (inactive) with HOP-92. The GI50 in the experiment on IGROV-1 is 4.18 µM (inactive); in the experiment with NCI/ADR-RES, 2.49 µM (inactive); in the experiment on SN12C it was 3.3 µM (inactive); in the experiment with SF-295, 4.74 µM (inactive); in the experiment on DU-145 it was 9.29 µM (inactive); in the experiment with MCF7, 3.47 µM (inactive). Moreover, the GI50 was 3.54 µM (inactive) with KM12, 7.6 µM (inactive) in the experiment with BT-549, 4.25 µM (inactive) in the experiment with U-251 and 3.44 µM (inactive) in the experiment with NCI-H460.

With `C/C(=C1/N=C(c2ccccc2)OC1=O)c1ccc(C)cc1`, the GI50 with HT-29, in the experiment on MDA-MB-435, in the experiment with EKVX, in the experiment with NCI-H522, with TK-10 and in the experiment on HOP-92 was > 100 µM (inactive) each time. Further, the GI50 with IGROV-1, in the experiment with SN12C, in the experiment with SF-295, in the experiment on Hs-578T, in the experiment on DU-145 and in the experiment with MCF7 was > 100 µM (inactive) throughout. The GI50 in the experiment on KM12 was > 100 µM (inactive); in the experiment on BT-549, > 100 µM (inactive); with HL-60, 45.3 µM (inactive); in the experiment on U-251, > 100 µM (inactive); in the experiment on NCI-H460, > 100 µM (inactive).

As to `COC(=O)c1c(O)ccc2c1c1c(n2Cc2ccc(Cl)cc2Cl)C(=O)c2ccccc2C1`, the GI50 in the experiment on SNB-75 is 20 µM (inactive); in the experiment with HT-29, 79.6 µM (inactive); with MDA-MB-435 it was 45.1 µM (inactive); with TK-10, > 100 µM (inactive); with IGROV-1, 50.8 µM (inactive); in the experiment on NCI/ADR-RES, 34 µM (inactive). The GI50 in the experiment on SN12C is 23.1 µM (inactive); with Hs-578T it was 93.8 µM (inactive); in the experiment with DU-145, > 100 µM (inactive); in the experiment with MCF7, 26.8 µM (inactive); with KM12, 22 µM (inactive); with BT-549 it was 75.9 µM (inactive). Further, the figures for the GI50 in the experiment on HL-60, with U-251 and in the experiment with NCI-H460 were > 100 µM (inactive), 38 µM (inactive) and 33.3 µM (inactive), respectively.

With `CC(=O)OC1CCC2C3CCc4c(C)ccc(OS(=O)(=O)c5ccccc5)c4C3CCC12C` (configuration not stated), the GI50 was 13.1 µM (inactive) with HT-29; 41.7 µM (inactive) with MDA-MB-435; 46.9 µM (inactive) in the experiment on EKVX; 27.2 µM (inactive) in the experiment on NCI-H522; 52.1 µM (inactive) in the experiment with TK-10; 6.55 µM (inactive) with HOP-92. For the same compound, the GI50 in the experiment with IGROV-1 was 38.7 µM (inactive); in the experiment on SN12C it was > 100 µM (inactive); in the experiment with SF-295, 25.5 µM (inactive); in the experiment on DU-145, 33.1 µM (inactive); with MCF7, 16.2 µM (inactive); with BT-549, 23.7 µM (inactive). In addition, the GI50 in the experiment with HL-60 was 3.84 µM (inactive); with U-251, 13.6 µM (inactive); in the experiment on NCI-H460 it was 6.61 µM (inactive).

Turning to `O=c1c2nn[nH]c2nc2n1CC(c1ccccc1)S2` (configuration not stated), the GI50 in the experiment with SNB-75 is 72.1 µM (inactive); with MDA-MB-435 it was > 100 µM (inactive); in the experiment with EKVX, > 100 µM (inactive); in the experiment on TK-10 it was > 100 µM (inactive); in the experiment on IGROV-1, > 100 µM (inactive); in the experiment with NCI/ADR-RES it was > 100 µM (inactive). Besides, the GI50 in the experiment with SN12C, in the experiment with SF-295, in the experiment with DU-145, in the experiment on MCF7, with KM12 and with BT-549 was > 100 µM (inactive) each time. The GI50 in the experiment on HL-60, in the experiment with U-251 and in the experiment on NCI-H460 was > 100 µM (inactive) each time.

In the case of `COc1ccccc1N1C(=O)C2C3c4ccccc4C(OC(C)=O)(c4ccccc43)C2C1=O` (configuration not stated), the GI50 was 17.5 µM (inactive) in the experiment with SNB-75; > 100 µM (inactive) with HT-29; > 100 µM (inactive) with EKVX; > 100 µM (inactive) in the experiment with TK-10; > 100 µM (inactive) in the experiment on IGROV-1; > 100 µM (inactive) in the experiment on NCI/ADR-RES. For the same compound, the GI50 is > 100 µM (inactive) in the experiment with SN12C; 78.7 µM (inactive) in the experiment on SF-295; 14.8 µM (inactive) in the experiment with Hs-578T; > 100 µM (inactive) with DU-145; 72.3 µM (inactive) in the experiment with MCF7; 77.4 µM (inactive) with KM12. For the same compound, the GI50 with BT-549 was 49.9 µM (inactive); in the experiment on HL-60, > 100 µM (inactive); in the experiment on U-251 it was 60.7 µM (inactive); with NCI-H460, > 100 µM (inactive).

`O=C(O)c1ccc(/C=N\N(CCO)C2=NCCN2)cc1`: the GI50 is 66.5 µM (inactive) in the experiment with SNB-75; > 100 µM (inactive) in the experiment on HT-29; > 100 µM (inactive) in the experiment with MDA-MB-435; > 100 µM (inactive) in the experiment with EKVX; > 100 µM (inactive) in the experiment with TK-10; > 100 µM (inactive) in the experiment with HOP-92. In addition, the GI50 in the experiment on IGROV-1, in the experiment with SN12C, with SF-295, in the experiment with Hs-578T, in the experiment with DU-145 and with MCF7 was > 100 µM (inactive) throughout. Further, the GI50 in the experiment on KM12, in the experiment on BT-549, with HL-60, with U-251 and in the experiment with NCI-H460 was > 100 µM (inactive) in each case.

Regarding `CC1(C)OC(C(C)(C)O)C(C(C)(C)O)O1` (configuration not stated), the GI50 in the experiment with SNB-75, in the experiment with HT-29, in the experiment on EKVX, with NCI-H522, in the experiment with TK-10 and in the experiment with IGROV-1 was > 100 µM (inactive) in each case. Moreover, the GI50 in the experiment on NCI/ADR-RES, in the experiment with SN12C, with SF-295, in the experiment on Hs-578T, in the experiment with DU-145 and with MCF7 was > 100 µM (inactive) in each case. Further, the GI50 in the experiment with KM12, in the experiment on BT-549, in the experiment with HL-60, with U-251 and with NCI-H460 was > 100 µM (inactive) throughout.

In the case of `Clc1c(Cl)c(Cl)c2nn(C3CCCO3)nc2c1Cl` (configuration not stated), the GI50 with HT-29 is 49.1 µM (inactive); in the experiment with MDA-MB-435, 44.3 µM (inactive); in the experiment on EKVX it was 19.5 µM (inactive); in the experiment with NCI-H522, 37.3 µM (inactive); in the experiment with TK-10, 69.8 µM (inactive); with IGROV-1, 32.4 µM (inactive). For the same compound, the GI50 was 42.8 µM (inactive) with NCI/ADR-RES; 46.5 µM (inactive) in the experiment on SN12C; 39.4 µM (inactive) in the experiment with SF-295; 11.7 µM (inactive) with Hs-578T; > 100 µM (inactive) in the experiment on DU-145; 46.3 µM (inactive) in the experiment on MCF7. In addition, the results for the GI50 with BT-549 and in the experiment on U-251 were 26.8 µM (inactive) and 41.4 µM (inactive), respectively.

As to `CC(C)CC(N)C(=O)Nc1ccc2ccccc2c1` (configuration not stated), the GI50 with SNB-75, with HT-29, in the experiment on EKVX, in the experiment on NCI-H522, in the experiment on TK-10 and with IGROV-1 was > 100 µM (inactive) throughout. Moreover, the GI50 with NCI/ADR-RES, in the experiment on SN12C, with SF-295, in the experiment with Hs-578T, with DU-145 and in the experiment on MCF7 was > 100 µM (inactive) throughout. Also, the GI50 with KM12 is 0.316 µM (active); in the experiment with BT-549, > 100 µM (inactive); in the experiment on HL-60, 98.2 µM (inactive); in the experiment on U-251, > 100 µM (inactive).

In the case of `CCOC(=O)C(NC(=O)CC(C)C)(Nc1ccc(S(=O)(=O)Nc2nc(C)cc(C)n2)cc1)C(F)(F)F` (configuration not stated), the GI50 in the experiment on SNB-75 was 89.9 µM (inactive); in the experiment on HT-29, > 100 µM (inactive); with MDA-MB-435 it was > 100 µM (inactive); in the experiment with EKVX, > 100 µM (inactive); in the experiment with NCI-H522, > 100 µM (inactive); in the experiment with TK-10 it was > 100 µM (inactive). Besides, the GI50 in the experiment with HOP-92, with IGROV-1, in the experiment on NCI/ADR-RES, in the experiment on SN12C, with SF-295 and in the experiment on Hs-578T was > 100 µM (inactive) each time. The GI50 with DU-145, in the experiment on KM12, in the experiment on BT-549, in the experiment with HL-60, with U-251 and in the experiment on NCI-H460 was > 100 µM (inactive) in each case.

The values above are taken from ChEMBL document CHEMBL1201862, “PubChem BioAssay data set” (2004).
